Assay results published in US12384751B2, “Allosteric activators of the ALPHA1A-adrenergic receptor” (The Cleveland Clinic Foundation, priority 2019, dated 2025).
Entries after “also recorded” stand apart in the source; their conditions may differ.

How the values were obtained:
α1A-AR [1] = target: T1, α1A-AR (Homo sapiens, UniProt P35348); experiment: Total inositol phosphate assay at α1A-AR; type: cell-based; design: expressed in transfected cells; host or cells: Rat-1 fibroblast cells; details: for stimulation of inositol phosphate / agonist activity by the compound by itself: compound alone
T1 sequence (P35348 1-466): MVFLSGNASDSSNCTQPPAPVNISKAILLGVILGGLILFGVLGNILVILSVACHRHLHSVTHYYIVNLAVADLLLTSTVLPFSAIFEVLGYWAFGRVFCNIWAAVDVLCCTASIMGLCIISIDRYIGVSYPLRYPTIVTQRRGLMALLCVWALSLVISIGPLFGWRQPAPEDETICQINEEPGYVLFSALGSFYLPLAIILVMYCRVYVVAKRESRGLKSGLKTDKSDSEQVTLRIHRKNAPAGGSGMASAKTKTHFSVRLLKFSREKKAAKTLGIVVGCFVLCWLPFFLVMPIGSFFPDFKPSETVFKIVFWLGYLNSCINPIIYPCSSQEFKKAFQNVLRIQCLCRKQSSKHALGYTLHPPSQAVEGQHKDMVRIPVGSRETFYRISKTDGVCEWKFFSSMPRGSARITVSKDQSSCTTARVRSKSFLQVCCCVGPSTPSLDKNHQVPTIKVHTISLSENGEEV
Experimental: Total Inositol Phosphate assay: Cells expressing a single α1-adrenergic receptor subtypes are washed and re-plated into 6-well plates containing DMEM media at approximately 5×10^5 cells/well. Cells are allowed to rest till the next day in a CO2 incubator at 37° C. The cells are washed twice with DMEM (no serum), then 2 ml of DMEM is added to each well. 2 ul of ^3H-inositol (at 1 uCi/mL, Perkin-Elmer NET 114 005MC) and 10 mM LiCl is added to each well. The cells are incubated for 1 hour at 37° C. in a CO2 incubator. […] The cells are incubated again for 1 hour at 37° C. in a CO2 incubator. The media is aspirated and 1 mL of ice-cold 0.4M perchloric acid is added. The cells are scraped, transferred to a vial, then 1 mL 0.72M KOH/0.6M KHCO3 is added, the tube vortexed and the contents centrifuged at 2000 rpm for 10 mins. The supernatant is removed and applied to BioRad polyprep columns packed with 1 mL of AG1-X8 resin (BioRad AG1-X8 resin 100-200 mesh #140-1444) in 0.1M formic acid in a holding tray which is over a plastic catch tray. The supernatant is allowed to naturally drip through the column then washed with 8 ml of 0.1M formic acid (2 ml at a time). The columns are transferred via the holding tray to a box of 20 ml scintillation vials so that the columns drip directly into the vials. Total inositol phosphates are eluted off the column with 2 ml of 0.1M formic acid/1M ammonium formate. The columns are eluted a second time into a new scintillation vial with another 2 ml of 0.1M formic acid/1M ammonium formate. 18 ml of Ecoscint A is added to each scintillation vial and vortexed. The vials are allowed to dark adapt overnight at room temperature to reduce autofluorescence. The vials are counted in a scintillation counter on the tritium channel and the cpms from the first and second fractions eluted off the columns are added together.

α1A-AR [2] = target: T1, α1A-AR; experiment: cAMP assay at α1A-AR; type: cell-based; design: expressed in transfected cells; host or cells: Rat-1 fibroblast cells; details: for effect on epinephrine-mediated cAMP response at the α1A-AR: 10^−5M to 10^−7M of compound; for effect on norepinephrine-mediated cAMP response at the α1A-AR: 10^−5M to 10^−9M of compound
Experimental: cAMP assay: Cells expressing a single α1-adrenergic receptor subtype are washed and re-plated into 24-well plates in DMEM media without serum at approximately 2.4×10^4 cells/well. Cells are allowed to rest till the next day in a CO2 incubator at 37° C. The cells are washed twice with DMEM (no serum), then 1 ml of DMEM is added to each well. Cells are pre-incubated for 45 mins-1 hour at 37° C. in a CO2 incubator with 10 uM propranolol, followed by 100 uM IBMX for 30 minutes. Final DMSO concentration is at 0.05%. Norepinephrine or epinephrine is added in a dose response (1 dose per well) in addition to one of the Compounds 1-10 at one concentration (i.e. 10^−5M). Cells are incubated for another 30 mins at 37° C. in a CO2 incubator. The reaction is concluded by aspirating the media and adding 0.1M HCL. The mixture is incubated for 20 mins at room temperature. The cells are scraped and suspended until homogenous. The mixture is centrifuged at 1000 g for 10 mins and the supernatant assayed the same day according to a manufacturer's cAMP kit (Cayman Select Cyclic AMP EIA kit #501040).

α1A-AR [3] = target: T1, α1A-AR; experiment: Competition binding with [125I]HEAT at α1A-AR (Rat-1 fibroblast membranes); design: expressed in transfected cells; host or cells: Rat-1 fibroblast cells
Experimental: Competition binding assays: […] Assays were performed in duplicate in HEM buffer, in a total assay volume of 1000 μl. […] The above conditions will convert all the conformations of the receptor into a single low affinity site. To show both high and low affinity sites of the receptor (typically seen with GPCR agonists), the GTP is removed from the binding buffer. Nonspecific binding was determined experimentally in the presence of 10^−4 M phentolamine. Unbound radioactivity was separated from membrane-bound radioactivity by filtration through Whatman GF/C filter paper. Filters are washed five times with 5 ml of cold HEM buffer containing 0.5 mMGTP (if added to the binding buffer but not if it was not added to the binding buffer). Bound radioactivity remaining on the filters was counted on an ICN gamma counter operating at 79.8% efficiency. Data are analyzed using Graphpad Prism.

Normal mice = details: cited from earlier work
α1A-AR [4] = target: T1, α1A-AR; experiment: Effect of compound on binding affinity of norepinephrine, epinephrine or other ligands at α1A-AR; design: expressed in transfected cells; host or cells: Rat-1 fibroblast cells; details: for effect on binding affinity of epinephrine at the α1A-AR: 10^−5M (highest dose tested); for effect on binding affinity of norepinephrine at the α1A-AR: fixed dose of compound, 10^−5M to 10^−9M
Experimental: Competition binding assays: These compounds were characterized for their ligand binding properties at the α1-AR subtypes. The binding affinities of Compounds 1-10 were determined in a series of competition-binding experiments with the α1-AR-selective antagonist [^125I]HEAT as the radioligand. Assays were performed in duplicate in HEM buffer, in a total assay volume of 1000 μl. Radioligand binding assays are composed of 5 ug of membranes, harvested from Rat-1 fibroblast cells expressing only one of the alpha1-AR subtypes, HEM buffer containing GTP (composed of 20 mM HEPES, pH 7.4, 1.4 mM EGTA, 12.5 mM MgCl2, pH to 7.4), 0.5 mM GTP, 35-80 pM^125I-HEAT, and various doses of norepinephrine or epinephrine and incubated with shaking at 25° C. for 1-2 hours. The above conditions will convert all the conformations of the receptor into a single low affinity site. To show both high and low affinity sites of the receptor (typically seen with GPCR agonists), the GTP is removed from the binding buffer. Nonspecific binding was determined experimentally in the presence of 10^−4 M phentolamine. Unbound radioactivity was separated from membrane-bound radioactivity by filtration through Whatman GF/C filter paper. Filters are washed five times with 5 ml of cold HEM buffer containing 0.5 mMGTP (if added to the binding buffer but not if it was not added to the binding buffer). Bound radioactivity remaining on the filters was counted on an ICN gamma counter operating at 79.8% efficiency. Data are analyzed using Graphpad Prism.
To determine the effects of compounds 1-10 on the binding affinity of norepinephrine or epinephrine, the competition binding assay was repeated as above with one dose of each individual compound (i.e. 10^−5M) added to each concentration point. Data are normalized to the norepinephrine or epinephrine binding curve alone without the addition of the compound to measure its effect on binding.

α1-ARs = details: read-out: calculated Ki; cited from earlier work

## Cc1c(OCC2=NCCN2)ccc(Cl)c1NS(C)(=O)=O.Cl [RO115-1240]
α1A-AR [1]
  effect on epinephrine-mediated inositol phosphate response at the α1A-AR: competitive/noncompetitive partial agonism, not PAM behavior
  effect on norepinephrine-mediated inositol phosphate response at the α1A-AR: competitive/noncompetitive partial agonism, not PAM behavior
  stimulation of inositol phosphate / agonist activity by the compound by itself: weak partial agonist; also recorded: significant IP response on its own
α1A-AR [2]
  PAM activity / PAM type: no evidence of PAM activity
  effect on epinephrine-mediated cAMP response at the α1A-AR: competitive, not PAM behavior; also recorded: shift the curve to the right to lower potency (inhibition)
  effect on norepinephrine-mediated cAMP response at the α1A-AR: antagonist at cAMP; also recorded: competitive, not PAM behavior; also recorded: shift the curve to the right to lower potency (inhibition)
α1A-AR [3]
  binding behaviour against radiolabeled antagonist 125I-HEAT (full inhibition; competitive or allosteric): competitive not allosteric behavior
  selectivity for the α1A-AR over the α1B-AR and α1D-AR subtypes: 100 fold

## c1ccc(C2CC2)c(OCC2=NCCN2)c1 [cirazoline]
Normal mice
  cognition: increased
  neurogenesis: increased
α1A-AR [1]
  effect on epinephrine-mediated inositol phosphate response at the α1A-AR: competitive/noncompetitive partial agonism, not PAM behavior
  effect on norepinephrine-mediated inositol phosphate response at the α1A-AR: competitive/noncompetitive partial agonism, not PAM behavior
  stimulation of inositol phosphate / agonist activity by the compound by itself: full agonist at the IP response; also recorded: strong agonist at the IP response
α1A-AR [2]
  PAM activity / PAM type: no evidence of PAM activity
  effect on epinephrine-mediated cAMP response at the α1A-AR: competitive, not PAM behavior
  effect on norepinephrine-mediated cAMP response at the α1A-AR: competitive, not PAM behavior
α1A-AR [4]
  effect on binding affinity of epinephrine at the α1A-AR: totally inhibit the binding
  effect on binding affinity of norepinephrine at the α1A-AR: totally inhibit the binding
α1A-AR [4]; listed as Cirazoline
  effect on binding affinity of epinephrine at the α1A-AR: fully inhibit
  effect on binding affinity of norepinephrine at the α1A-AR: does not increase the affinity of norepinephrine

## COc1cc2nc(N3CCN(C(=O)c4ccco4)CC3)nc(N)c2cc1OC [prazosin]
α1-ARs
  Ki: 1 nM
